MIC data for 15 molecules are collected here from DBAASP.

Values after ≈ are worked out from the molar mass of the structure shown.

Common to all, as to experiment: ≥ marks a high value that may be exact or a test limit, other limits are often not marked, values filed in µg/mL are converted to µM
Assay [1] deals with Streptococcus mutans.
Assay [2] has as its system Micrococcus luteus ATCC 10240.
The test system of assay [3] is Escherichia coli BL21AI.
In assay [4] the test system is Staphylococcus epidermidis.
The subject of assay [5] is Escherichia coli UB1005.
Assay [6] concerns Enterococcus faecalis ATCC 29212.
Assay [7] relates to Candida albicans.
The test system of assay [8] is Staphylococcus aureus ATCC 25923.
The test system of assay [9] is Pseudomonas aeruginosa H103.
Assay [10] has as its system Salmonella enterica serovar Typhimurium.
Assay [11] relates to Escherichia coli BW25113.
In assay [12] the test system is Micrococcus luteus ATCC 9341.
In assay [13] the test system is Shigella dysenteriae.
Assay [14] relates to Staphylococcus aureus NCTC 8325.
The test system of assay [15] is Candida albicans ATCC 90028.
For assay [16], the system named is Staphylococcus aureus ATCC 2592.
Assay [17] has as its system Candida albicans ATCC 2002.

Broadly, the MIC is the lowest concentration that inhibits growth of the organism. Low readings indicate greater potency, high ones weaker potency.

As to `CC[C@H](C)[C@H](NC(=O)[C@H](CCC(=O)O)NC(=O)[C@H](CCCCN)NC(=O)[C@H](CC(C)C)NC(=O)[C@H](CCC(N)=O)NC(=O)[C@H](CCC(=O)O)NC(=O)[C@@H](NC(=O)[C@H](CC(C)C)NC(=O)[C@@H](N)CCCCN)C(C)C)C(=O)N[C@@H](Cc1ccccc1)C(=O)N[C@@H](CCCN=C(N)N)C(=O)O` [KLVEQLKEIFR], the MIC in [1] is at least 178 µM.
Take `CC[C@H](C)[C@H](NC(=O)[C@H](Cc1ccc(O)cc1)NC(=O)[C@@H](NC(=O)[C@@H]1CCCN1C(=O)[C@H](CCCN=C(N)N)NC(=O)[C@H](CC(N)=O)NC(=O)[C@H](CC(N)=O)NC(=O)CN)C(C)C)C(=O)N[C@@H](C)C(=O)N[C@@H](CCC(N)=O)C(=O)N1CCC[C@H]1C(=O)N[C@@H](CCCN=C(N)N)C(=O)N1CCC[C@H]1C(=O)N1CCC[C@H]1C(=O)N[C@@H](Cc1cnc[nH]1)C(=O)N1CCC[C@H]1C(=O)N[C@@H](C)C(=O)N[C@@H](CC(C)C)C(N)=O` [GNNRPVYIAQPRPPHPAL]: the MIC in assay [2] and in [3] was at least 62.6 µM in each case.
`CC[C@H](C)[C@H](NC(=O)[C@H](CCCN=C(N)N)NC(=O)[C@H](CCCN=C(N)N)NC(=O)[C@@H]1CCCN1C(=O)[C@@H]1CCCN1C(=O)[C@H](CCCN=C(N)N)NC(=O)[C@@H]1CCCN1C(=O)[C@H](CCCN=C(N)N)NC(=O)[C@@H]1CCCN1C(=O)[C@H](CC(C)C)NC(=O)[C@H](Cc1ccc(O)cc1)NC(=O)[C@@H]1CCCN1C(=O)[C@@H]1CCCN1C(=O)[C@H](CCCCN)NC(=O)[C@H](CC(=O)O)NC(=O)[C@@H](N)C(C)C)C(=O)N[C@@H](Cc1ccc(O)cc1)C(=O)N[C@@H](CC(N)=O)C(=O)N[C@@H](CCCN=C(N)N)C(=O)N[C@@H](CC(N)=O)C(=O)O` [VDKPPYLPRPRPPRRIYNRN]: the MIC in assay [2] was 6.39 µM (≈ 16 µg/mL); in assay [3], 3.19 µM (≈ 8 µg/mL).
`CC(C)C[C@H](NC(=O)[C@H](Cc1ccccc1)NC(=O)[C@H](CCCCN)NC(=O)[C@H](Cc1c[nH]c2ccccc12)NC(=O)[C@H](Cc1c[nH]c2ccccc12)NC(=O)[C@H](CCCN=C(N)N)NC(=O)[C@H](CCCCN)NC(=O)[C@H](CC(C)C)NC(=O)[C@@H](N)CCCN=C(N)N)C(=O)O` [RLKRWWKFL]: the MIC is 1.2 µM (≈ 1.6 µg/mL) in assay [4]; 1.2 µM (≈ 1.6 µg/mL) in assay [5]; 9.8 µM (≈ 13.1 µg/mL) in assay [6]; 9.8 µM (≈ 13.1 µg/mL) in assay [7]; 2.4 µM (≈ 3.2 µg/mL) in assay [8]; 9.8 µM (≈ 13.1 µg/mL) in assay [9]. This molecule also returned an MIC in assay [10] of 4.9 µM (≈ 6.53 µg/mL).
On to `CC[C@H](C)[C@H](NC(=O)[C@H](Cc1ccccc1)NC(=O)[C@@H](N)Cc1ccccc1)C(=O)N[C@@H](Cc1ccc(O)cc1)C(=O)N[C@H](C(=O)N[C@@H](Cc1c[nH]c2ccccc12)C(=O)N[C@@H](CCCN=C(N)N)C(=O)N[C@@H](CCCN=C(N)N)C(=O)N[C@@H](CCCN=C(N)N)C(=O)O)C(C)C` [FFIYVWRRR], for which the MIC in assay [4] amounted to 1 µM (≈ 1.34 µg/mL); in [5] it was 3.8 µM (≈ 5.1 µg/mL); in [6], 3.8 µM (≈ 5.1 µg/mL); in assay [7], 7.6 µM (≈ 10.2 µg/mL); in assay [8] it was 1.9 µM (≈ 2.55 µg/mL); in [9], 15.3 µM (≈ 20.5 µg/mL). The same molecule returned an MIC in [10] of 7.6 µM (≈ 10.2 µg/mL).
Take `NCCCC[C@H](NC(=O)[C@H](CCCN=C(N)N)NC(=O)[C@H](CCCN=C(N)N)NC(=O)[C@H](CCCCN)NC(=O)[C@H](Cc1c[nH]c2ccccc12)NC(=O)[C@H](CCCN=C(N)N)NC(=O)[C@@H](N)CCCN=C(N)N)C(=O)O` [RRWKRRK]: the MIC in assay [1] is at least 461 µM.
For `CC[C@H](C)[C@H](NC(=O)[C@@H]1CCCN1C(=O)[C@H](CCCN=C(N)N)NC(=O)[C@H](CCCN=C(N)N)NC(=O)[C@H](Cc1ccccc1)NC(=O)[C@@H](N)CCCN=C(N)N)C(=O)N[C@@H](CCCN=C(N)N)C(=O)N[C@@H](CCCN=C(N)N)C(=O)N[C@@H](CCCN=C(N)N)C(=O)N1CCC[C@H]1C(=O)N[C@H](C(=O)N[C@@H](CCCN=C(N)N)C(=O)N1CCC[C@H]1C(=O)N1CCC[C@H]1C(=O)N[C@@H](Cc1ccccc1)C(=O)N[C@@H](Cc1ccc(O)cc1)C(=O)N1CCC[C@H]1C(=O)O)[C@@H](C)CC` [RFRRPIRRRPIRPPFYP], the minimal inhibitory concentration (MIC) in [11] stood at 8 µM (≈ 18.2 µg/mL).
For the molecule `NCCCC[C@H](NC(=O)[C@@H](N)Cc1c[nH]c2ccccc12)C(=O)N[C@@H](Cc1c[nH]c2ccccc12)C(=O)N1CCC[C@H]1C(=O)N[C@@H](Cc1c[nH]c2ccccc12)C(=O)N[C@@H](Cc1c[nH]c2ccccc12)C(=O)N1CCC[C@H]1C(=O)N[C@@H](Cc1c[nH]c2ccccc12)C(=O)N[C@@H](CCCN=C(N)N)C(=O)N[C@@H](CCCN=C(N)N)C(N)=O` [WKWPWWPWRR], in assay [12], the MIC was determined as 0.4 µM (≈ 0.633 µg/mL).
As for `NC(N)=NCCC[C@H](NC(=O)[C@H](Cc1c[nH]c2ccccc12)NC(=O)[C@H](Cc1c[nH]c2ccccc12)NC(=O)[C@H](Cc1c[nH]c2ccccc12)NC(=O)[C@H](CCCN=C(N)N)NC(=O)[C@H](CCCN=C(N)N)NC(=O)[C@@H](N)CCCN=C(N)N)C(=O)O` [RRRWWWR], in assay [1], the MIC worked out at 26.6 µM (≈ 32 µg/mL).
In the case of `CC[C@H](C)[C@H](NC(=O)CNC(=O)[C@H](CO)NC(=O)[C@H](CC(C)C)NC(=O)[C@H](CC(C)C)NC(=O)CN)C(=O)N[C@@H](CC(C)C)C(=O)NCC(=O)N[C@@H](C)C(=O)NCC(=O)N[C@@H](CCCCN)C(=O)N[C@@H](CC(N)=O)C(=O)N[C@H](C(=O)N[C@H](C(=O)N[C@H]1CSSC[C@@H](C(=O)O)NC(=O)[C@H](CC(C)C)NC(=O)CNC(=O)[C@H](CO)NC(=O)[C@H](CC(C)C)NC(=O)CNC1=O)C(C)C)[C@@H](C)CC` [GLLSGILGAGKNIVCGLSGLC], the MIC in assay [13] is 0.643 µM (≈ 1.25 µg/mL); in [14], at least 100 µM; in assay [15], at least 100 µM; in assay [16], 1.29 µM (≈ 2.5 µg/mL); in assay [17], 3.86 µM (≈ 7.49 µg/mL).
Turning to `CC[C@H](C)[C@H](N)C(=O)N[C@@H](CC(C)C)C(=O)N1CCC[C@H]1C(=O)N[C@@H](CCCCN)C(=O)N[C@@H](CCCCN)C(=O)N[C@@H](CCCCN)C(=O)N1CCC[C@H]1C(=O)N[C@@H](CCCCN)C(=O)N[C@@H](CCCCN)C(=O)N1CCC[C@H]1C(=O)N[C@@H](CCCCN)C(=O)N[C@@H](CCCN=C(N)N)C(=O)N[C@@H](CCCN=C(N)N)C(N)=O` [ILPKKKPKKPKRR], the MIC in assay [12] was at least 100 µM.
Still for that read-out and setting: to `CC[C@H](C)[C@H](N)C(=O)N[C@@H](CC(C)C)C(=O)N1CCC[C@H]1C(=O)N[C@@H](CCC(=O)O)C(=O)N[C@@H](CCCCN)C(=O)N[C@@H](CCC(=O)O)C(=O)N1CCC[C@H]1C(=O)N[C@@H](CCC(=O)O)C(=O)N[C@@H](CCC(=O)O)C(=O)N1CCC[C@H]1C(=O)N[C@@H](CCC(=O)O)C(=O)N[C@@H](CCCN=C(N)N)C(=O)N[C@@H](CCCN=C(N)N)C(N)=O` [ILPEKEPEEPERR] belongs at least 100 µM.
Take `CC[C@H](C)[C@H](NC(=O)[C@H](Cc1c[nH]c2ccccc12)NC(=O)[C@H](Cc1c[nH]c2ccccc12)NC(=O)[C@H](CCCCN)NC(=O)[C@H](Cc1c[nH]c2ccccc12)NC(=O)[C@H](CCCN=C(N)N)NC(=O)[C@H](CCCN=C(N)N)NC(=O)[C@H](CCCCN)NC(=O)[C@@H](N)CC(C)C)C(=O)O` [LKRRWKWWI]: the MIC in assay [4] came out at 1.2 µM (≈ 1.65 µg/mL); in assay [5] it was 2.4 µM (≈ 3.29 µg/mL); in [6], 9.6 µM (≈ 13.2 µg/mL); in assay [7], 19.1 µM (≈ 26.2 µg/mL); in assay [8] it was 2.4 µM (≈ 3.29 µg/mL); in assay [9], 19.1 µM (≈ 26.2 µg/mL). Moreover, the MIC in [10] is 9.6 µM (≈ 13.2 µg/mL).
`NC(=O)[C@H](Cc1cnc[nH]1)NC(=O)[C@H](Cc1ccccc1)NC(=O)[C@H](Cc1ccccc1)NC(=O)[C@H](Cc1cnc[nH]1)NC(=O)[C@H](Cc1cnc[nH]1)NC(=O)[C@H](Cc1ccccc1)NC(=O)[C@H](Cc1cnc[nH]1)NC(=O)[C@H](CCCN=C(N)N)NC(=O)[C@H](Cc1c[nH]c2ccccc12)NC(=O)[C@H](Cc1c[nH]c2ccccc12)NC(=O)[C@H](CCCN=C(N)N)NC(=O)[C@H](CCCN=C(N)N)NC(=O)[C@H](Cc1c[nH]c2ccccc12)NC(=O)[C@@H](N)CCCN=C(N)N` [RWRRWWRHFHHFFH] returned an MIC in [1] of 3.65 µM (≈ 8 µg/mL).
For `CC[C@H](C)[C@H](NC(=O)[C@H](Cc1c[nH]c2ccccc12)NC(=O)[C@H](CCCCN)NC(=O)[C@H](CCCCN)NC(=O)[C@H](CC(C)C)NC(=O)[C@H](Cc1c[nH]c2ccccc12)NC(=O)[C@H](CCCCN)NC(=O)[C@@H](N)Cc1c[nH]c2ccccc12)C(=O)N[C@@H](CCCCN)C(=O)O` [WKWLKKWIK], the MIC in assay [4] is 0.458 µM (≈ 0.603 µg/mL); in [5] it was 5.8 µM (≈ 7.63 µg/mL); in assay [6], 11.5 µM (≈ 15.1 µg/mL); in [7], 5.8 µM (≈ 7.63 µg/mL); in assay [8], 0.7 µM (≈ 0.921 µg/mL); in [9], 2.9 µM (≈ 3.82 µg/mL). This molecule came in with a minimal inhibitory concentration (MIC) in [10] of 11.5 µM (≈ 15.1 µg/mL).
